Read-outs that look alike come from different tables or passages of the source.
How the values were obtained:
[1] = system: human lung cancer strain NCI-H441;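 also: cell proliferation inhibition after four days measured by CellTiter-Glo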
[2] = target: GDP-bound HRAS wild-type protein (Homo sapiens, UniProt P01112); assay: Binding to HRAS by surface plasmon resonance (SPR), Single Cycle Kinetics; conditions: for HRAS/KRAS (ratio of KD value for HRAS to KD value for KRAS): SPR, GDP-bound HRAS wild-type protein vs GDP-bound KRAS wild-type protein
GDP-bound HRAS wild-type protein, sequence (P01112 whole entry): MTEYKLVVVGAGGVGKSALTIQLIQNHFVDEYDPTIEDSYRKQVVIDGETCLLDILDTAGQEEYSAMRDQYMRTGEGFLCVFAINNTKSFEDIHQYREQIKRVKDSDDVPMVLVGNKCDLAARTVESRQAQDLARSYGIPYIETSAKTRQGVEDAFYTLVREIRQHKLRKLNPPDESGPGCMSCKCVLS

[3] = target: GDP-bound KRAS wild-type protein (Homo sapiens, UniProt P01116); assay: Binding to KRAS by surface plasmon resonance (SPR), Single Cycle Kinetics; conditions: GDP-bound KRAS wild-type protein, read-out: KRAS KD
GDP-bound KRAS wild-type protein, sequence (P01116 whole entry): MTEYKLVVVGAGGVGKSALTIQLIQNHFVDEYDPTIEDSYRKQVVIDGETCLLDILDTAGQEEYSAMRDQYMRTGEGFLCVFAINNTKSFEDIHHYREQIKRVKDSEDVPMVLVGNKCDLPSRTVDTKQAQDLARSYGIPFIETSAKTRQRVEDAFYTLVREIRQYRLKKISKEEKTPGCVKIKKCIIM

[4] = target: GDP-bound NRAS wild-type protein (Homo sapiens, UniProt P01111); assay: Binding to NRAS by surface plasmon resonance (SPR), Single Cycle Kinetics; conditions: for NRAS/KRAS (ratio of KD value for NRAS to KD value for KRAS): SPR, GDP-bound NRAS wild-type protein vs GDP-bound KRAS wild-type protein
GDP-bound NRAS wild-type protein, sequence (P01111 whole entry): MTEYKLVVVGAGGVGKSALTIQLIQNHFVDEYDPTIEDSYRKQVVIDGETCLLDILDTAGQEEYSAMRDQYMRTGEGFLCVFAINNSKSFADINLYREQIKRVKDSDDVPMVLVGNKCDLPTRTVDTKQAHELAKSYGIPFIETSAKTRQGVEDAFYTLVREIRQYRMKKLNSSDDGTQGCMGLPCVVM

SMILES | IC50 [1] | Kd ([3]; SPR, Single Cycle Kinetics) | Kd ([3]; SPR, Single Cycle Kinetics, 1:1 binding model) | Kd ([3]; SPR Single Cycle Kinetics, 1:1 binding model) | HRAS/KRAS (ratio of KD value for HRAS to KD value for KRAS) [2] | NRAS/KRAS (ratio of KD value for NRAS to KD value for KRAS) [4] | HRAS/KRAS (ratio of KD value for HRAS to KD value for KRAS) ([2]; KD ratio class) | NRAS/KRAS (ratio of KD value for NRAS to KD value for KRAS) ([4]; KD ratio class) | HRAS/KRAS (ratio of KD value with respect to GDP-bound HRAS wild-type protein to KD value with respect to KRAS) ([2]; SPR KD ratio HRAS/KRAS, class symbols) | NRAS/KRAS (ratio of KD value with respect to GDP-bound NRAS wild-type protein to KD value with respect to KRAS) ([4]; SPR KD ratio NRAS/KRAS, class symbols)
CC[C@H](C)[C@@H]1NC(=O)[C@H](COC)N(C)C(=O)C[C@@H](C(=O)N2CCOCC2)N(C)C(=O)[C@H](C2CCCC2)N(C)C(=O)C2(CCC2)NC(=O)[C@@H]2CCCN2C(=O)[C@H](CCc2cc(F)c(C(F)(F)F)c(F)c2)NC(=O)CN(C)C(=O)[C@H](Cc2ccc(C(F)(F)F)cc2)N2CCCCC[C@@H](C2=O)N(C)C(=O)CNC1=O [PP0860] | 143 nM | 1.1 nM | – | – | B (a compound having 3 or more and less than 10 is denoted as B) | B (a compound having 3 or more and less than 10 is denoted as B) | – | – | – | –
CCO[C@@H]1C[C@H]2C(=O)NC3(CC(C)(C)C3)C(=O)N(C)[C@@H](C3CCCC3)C(=O)N(C)[C@H](C(=O)N(C)C)CC(=O)N(C)[C@@H](COC)C(=O)N[C@@H]([C@@H](C)CC)C(=O)N(C3CC3)CC(=O)N(C)[C@H]3C/C=C\CCN(C3=O)[C@@H](CC3CCCCC3)C(=O)N(C)CC(=O)N[C@@H](CCc3cc(F)c(C(F)(F)F)c(F)c3)C(=O)N2C1 [PP2562] | 46.5 nM | – | – | 0.91 nM | – | – | – | – | B (a compound having 3 or more and less than 10 is denoted as B) | B (a compound having 3 or more and less than 10 is denoted as B)
CCO[C@@H]1C[C@H]2C(=O)NC3(CCC3)C(=O)N(C)[C@@H](C3CCCC3)C(=O)N(C)[C@H](C(=O)N(C)C)CC(=O)N(C)[C@@H](CC3CC3)C(=O)N[C@@H]([C@@H](C)CC)C(=O)N(C)CC(=O)N(C)[C@H]3CCCCCN(C3=O)[C@@H](Cc3ccc(F)cc3)C(=O)N(C)CC(=O)N[C@@H](CCc3cc(F)c(C(F)(F)F)c(F)c3)C(=O)N2C1 [PP1192] | 10.5 nM | 0.04 nM | – | – | A (a compound having 10 or more and less than 20 is denoted as A) | B (a compound having 3 or more and less than 10 is denoted as B) | – | – | – | –

The remaining compounds from weak to strong by IC50 [1], led by results:

IC50 [1] | Kd ([3]; SPR, Single Cycle Kinetics) | Kd ([3]; SPR, Single Cycle Kinetics, 1:1 binding model) | Kd ([3]; SPR Single Cycle Kinetics, 1:1 binding model) | SMILES | HRAS/KRAS (ratio of KD value for HRAS to KD value for KRAS) [2] | NRAS/KRAS (ratio of KD value for NRAS to KD value for KRAS) [4] | HRAS/KRAS (ratio of KD value for HRAS to KD value for KRAS) ([2]; KD ratio class) | NRAS/KRAS (ratio of KD value for NRAS to KD value for KRAS) ([4]; KD ratio class) | HRAS/KRAS (ratio of KD value with respect to GDP-bound HRAS wild-type protein to KD value with respect to KRAS) ([2]; SPR KD ratio HRAS/KRAS, class symbols) | NRAS/KRAS (ratio of KD value with respect to GDP-bound NRAS wild-type protein to KD value with respect to KRAS) ([4]; SPR KD ratio NRAS/KRAS, class symbols)
234 nM | 3.2 nM | – | – | CCO[C@@H]1C[C@H]2C(=O)NC3(CCC3)C(=O)N(C)[C@@H](C3CCCC3)C(=O)N(CC)[C@H](C(=O)N3CCOCC3)CC(=O)N(C)[C@@H](CCC(F)F)C(=O)N[C@@H]([C@@H](C)CC)C(=O)N(C)CC(=O)N(C)[C@H]3CCCCCN(C3=O)[C@@H](Cc3ccc(C(F)(F)F)cc3)C(=O)N(C)CC(=O)N[C@@H](CCc3cc(F)c(C(F)(F)F)c(F)c3)C(=O)N2C1 [PP0948] | A (a compound having 10 or more and less than 20 is denoted as A) | A (a compound having 10 or more and less than 20 is denoted as A) | – | – | – | –
122 nM | – | 1.2 nM | – | CCC[C@H]1C(=O)N[C@@H]([C@@H](C)CC)C(=O)N(C)CC(=O)N(C)[C@H]2C/C=C\CCN(C2=O)[C@@H](Cc2ccc(C(F)(F)F)cc2)C(=O)N(C)CC(=O)N[C@@H](CCc2ccc3sccc3c2)C(=O)N2C[C@H](OCC)C[C@H]2C(=O)NC2(CCC2)C(=O)N(C)[C@@H](C(CC)CC)C(=O)N(C)[C@H](C(=O)N(C)C)CC(=O)N1C [PP1224] | – | – | A (a compound having 10 or more and less than 20 is denoted as A) | A (a compound having 10 or more and less than 20 is denoted as A) | – | –
